Experimental data reported in patent US8748440B2 (Exelixis, Inc., priority 2002, dated 2014).

Molecular target: T1, FXR (CMX-hFXR) (Homo sapiens, UniProt Q96RI1)
T1 construct: expressed in transfected cells; host or cells: CV-1 African Green Monkey Kidney cells
T1 sequence (Q96RI1 1-472 isoform Q96RI1-2): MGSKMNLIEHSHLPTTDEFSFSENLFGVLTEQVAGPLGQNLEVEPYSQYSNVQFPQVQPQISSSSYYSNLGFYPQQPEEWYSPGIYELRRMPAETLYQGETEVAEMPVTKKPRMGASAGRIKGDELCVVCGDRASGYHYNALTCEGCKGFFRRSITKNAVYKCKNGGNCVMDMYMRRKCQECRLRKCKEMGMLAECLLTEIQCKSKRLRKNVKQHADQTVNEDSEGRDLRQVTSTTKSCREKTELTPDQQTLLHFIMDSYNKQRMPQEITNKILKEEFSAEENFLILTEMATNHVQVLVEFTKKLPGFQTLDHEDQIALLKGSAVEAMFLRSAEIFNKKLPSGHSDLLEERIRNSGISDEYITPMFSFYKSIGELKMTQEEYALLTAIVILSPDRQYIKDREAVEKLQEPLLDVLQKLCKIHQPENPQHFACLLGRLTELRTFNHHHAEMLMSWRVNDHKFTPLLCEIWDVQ
T1 sequence (P19793 1-462 partner): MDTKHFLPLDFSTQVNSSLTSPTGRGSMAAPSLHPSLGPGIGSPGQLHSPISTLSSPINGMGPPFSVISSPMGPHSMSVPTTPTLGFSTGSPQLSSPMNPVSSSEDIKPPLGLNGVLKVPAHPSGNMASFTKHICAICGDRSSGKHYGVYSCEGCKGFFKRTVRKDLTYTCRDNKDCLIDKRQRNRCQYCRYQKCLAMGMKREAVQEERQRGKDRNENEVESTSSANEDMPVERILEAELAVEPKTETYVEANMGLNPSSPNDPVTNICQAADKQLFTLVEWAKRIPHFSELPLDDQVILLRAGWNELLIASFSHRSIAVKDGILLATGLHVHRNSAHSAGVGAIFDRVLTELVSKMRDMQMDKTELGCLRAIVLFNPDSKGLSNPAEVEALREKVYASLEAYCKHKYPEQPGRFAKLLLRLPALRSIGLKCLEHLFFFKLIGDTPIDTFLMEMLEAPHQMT
Test: FXR co-transfection assay (FXR/ECREx7)
Type: cell-based
Conditions: for EC50: CV-1 cells, agonist mode; for Emax: relative to maximum response of chenodeoxycholic acid (CDCA), read-out: % efficacy
Description: The basic co-transfection protocol for measuring FXR activity is as follows. CV-1 African Green Monkey Kidney cells are plated 24 hours before transfection to achieve approximately 70-80 percent confluency. Cells are transfected with CMX-hFXR, CMX-RXRα, Luc12 reporter (ECREx7-Tk-Luciferase), and a CMX-β-Galactosidase expression vector (See WO 00/76523). The transfection reagent used is DOTAP (Boehringer Mannheim). Cells are incubated with the DOTAP/DNA mixture for 5 hours after which the cells are harvested and plated onto either 96 well or 384 well plates containing the appropriate concentration of test compound. The assay is allowed to continue for an additional 18-20 hours, after which the cells are lysed, with lysis buffer (1% triton X 100, 10% glycerol, 5 mM Dithiothreitol, 1 mM EGTA, 25 mM Tricine, pH 7.8) and the luciferase activity is measured in the presence of Luciferase assay buffer (0.73 mM ATP, 22.3 mM Tricine, 0.11 mM EGTA, 0.55 mM Luciferin, 0.15 mM Coenzyme A, 0.5 mM HEPES, 10 mM Magnesium sulphate) on a standard luminometer plate reader (PE Biosystems, NorthStar Reader).
Both the FXR/ECREx7 co-transfection assay (Example 15) and the TR-FRET assay (Example 16) can be used to establish the EC50/IC50 values for potency and percent activity or inhibition for efficacy. Efficacy defines the activity of a compound relative to a high control (chenodeoxycholic acid, CDCA) or a low control (DMSO/vehicle). The dose response curves are generated from an 8 point curve with concentrations differing by 1/2 LOG units. Each point represents the average of 4 wells of data from a 384 well plate. The curve for the data is generated by using the equation: Y=Bottom+(Top−Bottom)/(1+10^((Log EC50−X)*HillSlope))
The EC50/IC50 is therefore defined as the concentration at which an agonist or antagonist elicits a response that is half way between the Top (maximum) and Bottom (baseline) values. The EC50/IC50 values represented are the averages of at least 3 independent experiments. The determination of the relative efficacy or % control for an agonist is by comparison to the maximum response achieved by chenodeoxycholic acid that is measured individually in each dose response experiment.
For the antagonist assay, CDCA is added to each well of a 384 well plate to elicit a response. The % inhibition for each antagonist is therefore a measurement of the inhibition of the activity of CDCA. In this example, 100% inhibition would indicate that the activity of CDCA has been reduced to baseline levels, defined as the activity of the assay in the presence of DMSO only.

SMILES	EC50 [nM]	Emax [%]
Cc1ccc(-n2c(C(C)N(C)S(=O)(=O)c3ccc(C(C)(C)C)cc3)nc3ccc(-c4cccs4)cc3c2=O)cc1 (stereo not shown)	~600	~110
COc1ccc(-n2c(C(C)N(C)S(=O)(=O)c3ccc(C(C)(C)C)cc3)nc3ccc(OC)cc3c2=O)cc1 (stereo not shown) [4-tert-butyl-N-{1-[6-methoxy-3-(4-methoxyphenyl)-4-oxo-3,4-dihydroquinazolin-2-yl]ethyl}-N-methylbenzenesulfonamide]	~300	~190
